Experimental data published in ChEMBL document CHEMBL1152101, “Boric acid effect ont he hydrolysis of 4-nitrophenyl 2,3-dihydroxybenzoate: mimic of borate inhibition of serine proteases” (Bioorg Med Chem Lett, 1993).

Legend:
[1] = Tested for hydrolysis in presence of boric acid, rate constant was evaluated at the pH 8.5; assay type: ADME; conditions: buffer
[2] = Tested for hydrolysis in presence of boric acid, rate constant was evaluated at the pH 9.5; assay type: ADME; conditions: buffer
Chymotrypsinogen A [3] = biological target: T1, Chymotrypsinogen A (Bos taurus, UniProt P00766); assay: Tested for inhibition of hydrolysis in presence of alpha-chymotrypsin and […](Apparent inhibition constant)
[4] = Tested for hydrolysis in presence of phenylboronic acid, rate constant was evaluated at the pH 9.5; assay type: ADME; conditions: buffer
Chymotrypsinogen A [5] = biological target: T1, Chymotrypsinogen A; assay: Tested for inhibition of hydrolysis in presence of alpha-chymotrypsin and phenylboronic acid(Apparent inhibition constant)
[6] = Tested for hydrolysis in presence of boric acid, dissociation constant was evaluated at the pH 9.5(Apparent inhibition constant); assay type: ADME
[7] = Hydrolysis rate constant was determined; assay type: ADME
[8] = Tested for hydrolysis in presence of boric acid, dissociation constant was evaluated at the pH 8.5(Apparent inhibition constant); assay type: ADME
[9] = pKa value was determined; assay type: physicochemical
[10] = Tested for hydrolysis in presence of boric acid by UV spectrophotometry, dissociation constant was evaluated at the pH < 8; assay type: ADME
[11] = Tested for hydrolysis in presence of phenylboronic acid, dissociation constant was evaluated at the pH 9.5(Apparent inhibition constant); assay type: ADME

O=C(Oc1ccc([N+](=O)[O-])cc1)c1cccc(O)c1O
KB [1]: 0.000018 s⁻¹ | KB [2]: 0.000022 s⁻¹ | Ki (Chymotrypsinogen A [3]): 40000 µM | KB [4]: 0.000017 s⁻¹ | Ki (Chymotrypsinogen A [5]): 200 µM | Ki [6]: 230 µM | K1 [7]: 0.000033 s⁻¹ | K2 [7]: 0.00026 s⁻¹ | Ki [8]: 380 µM | pKa [9]: 8.8 | KB [10]: 0.00005 s⁻¹ | Ki [11]: 250 µM
